From patent US20210127673A1, “HERBICIDES” (SYNGENTA PARTICIPATIONS AG, priority 2016, published 2021)

Tests used:
Assay type in all cases: in vivo
Details in all cases: 1000 g/ha, evaluated after 13 days
[1] = system: Alopecurus myosuroides (ALOMY); experiment: Post-emergence herbicidal activity, Alopecurus myosuroides; set-up: key: 5=total damage to plant; 0=no damage to plant
Description: (§1) Seeds of a variety of test species were sown in standard soil in pots: Triticum aestivium (TRZAW), Avena fatua (AVEFA), Alopecurus myosuroides (ALOMY), Echinochloa crus-galli (ECHCG), Lolium perenne (LOLPE), Zea Mays (ZEAMX), Abutilon theophrasti (ABUTH), Amaranthus retroflexus (AMARE) and Setaria faberi (SETFA). After 8 days cultivation (post-emergence) under controlled conditions in a glasshouse (at 24/16° C., day/night; 14 hours light; 65% humidity), the plants were sprayed with an aqueous spray solution derived from the formulation of the technical active ingredient in acetone/water (50:50) solution containing 0.5% Tween 20 (polyoxyethelyene sorbitan monolaurate, CAS RN 9005-64-5). The test plants were then grown in a glasshouse under controlled conditions (at 24/16° C., day/night; 14 hours light; 65% humidity) and watered twice daily. After 13 days, the test was evaluated (5=total damage to plant; 0=no damage to plant).

[2] = system: Echinochloa crus-galli (ECHCG); experiment: Pre-emergence herbicidal activity, Echinochloa crus-galli; set-up: key: 5=total damage to plant; 0=no damage to plant
Description: (§2) Seeds of a variety of test species were sown in standard soil in pots: Triticum aestivium (TRZAW), Avena fatua (AVEFA), Alopecurus myosuroides (ALOMY), Echinochloa crus-galli (ECHCG), Lolium perenne (LOLPE), Zea Mays (ZEAMX), Abutilon theophrasti (ABUTH), Amaranthus retroflexus (AMARE) and Setaria faberi (SETFA). After cultivation for one day (pre-emergence) under controlled conditions in a glasshouse (at 24/16° C., day/night; 14 hours light; 65% humidity), the plants were sprayed with an aqueous spray solution derived from the formulation of the technical active ingredient in acetone/water (50:50) solution containing 0.5% Tween 20 (polyoxyethelyene sorbitan monolaurate, CAS RN 9005-64-5). The test plants were then grown in a glasshouse under controlled conditions (at 24/16°, day/night; 14 hours light; 65% humidity) and watered twice daily. After 13 days, the test was evaluated (5=total damage to plant; 0=no damage to plant).

Avena fatua (AVEFA) [3] = experiment: Pre-emergence herbicidal activity, Avena fatua; set-up: key: 5=total damage to plant; 0=no damage to plant
Description: as §2

Setaria faberi (SETFA) [4] = experiment: Pre-emergence herbicidal activity, Setaria faberi; set-up: key: 5=total damage to plant; 0=no damage to plant
Description: as §2

[5] = system: Echinochloa crus-galli (ECHCG); experiment: Post-emergence herbicidal activity, Echinochloa crus-galli; set-up: key: 5=total damage to plant; 0=no damage to plant
Description: as §1

[6] = system: Alopecurus myosuroides (ALOMY); experiment: Pre-emergence herbicidal activity, Alopecurus myosuroides; set-up: key: 5=total damage to plant; 0=no damage to plant
Description: as §2

[7] = system: Triticum aestivium (TRZAW); experiment: Pre-emergence herbicidal activity, Triticum aestivium; set-up: key: 5=total damage to plant; 0=no damage to plant
Description: as §2

[8] = system: Triticum aestivium (TRZAW); experiment: Post-emergence herbicidal activity, Triticum aestivium; set-up: key: 5=total damage to plant; 0=no damage to plant
Description: as §1

Lolium perenne (LOLPE) [9] = experiment: Post-emergence herbicidal activity, Lolium perenne
Description: as §1

Setaria faberi (SETFA) [10] = experiment: Post-emergence herbicidal activity, Setaria faberi; set-up: key: 5=total damage to plant; 0=no damage to plant
Description: as §1

Avena fatua (AVEFA) [11] = experiment: Post-emergence herbicidal activity, Avena fatua
Description: as §1

Lolium perenne (LOLPE) [12] = experiment: Pre-emergence herbicidal activity, Lolium perenne; set-up: key: 5=total damage to plant; 0=no damage to plant
Description: as §2

Structure (SMILES) | Control of ALOMY after post-emergence application (score 0-5) [1] | Control of ECHCG after pre-emergence application (score 0-5) [2] | Control of AVEFA after pre-emergence application (score 0-5) (Avena fatua (AVEFA) [3]) | Control of SETFA after pre-emergence application (score 0-5) (Setaria faberi (SETFA) [4]) | Control of ECHCG after post-emergence application (score 0-5) [5] | Control of ALOMY after pre-emergence application (score 0-5) [6] | Control of TRAZW after pre-emergence application (score 0-5) [7] | Control of TRAZW after post-emergence application (score 0-5) [8] | Control of LOLPE after post-emergence application (score 0-5) (Lolium perenne (LOLPE) [9]) | Control of SETFA after post-emergence application (score 0-5) (Setaria faberi (SETFA) [10]) | Control of AVEFA after post-emergence application (score 0-5) (Avena fatua (AVEFA) [11]) | Control of LOLPE after pre-emergence application (score 0-5) (Lolium perenne (LOLPE) [12])
CC(C)(C)OC(=O)Nc1ccc(-c2cncc(C#N)c2)nc1C(F)(F)F [Compound B7] | 1 | 2 | 1 | 5 | 4 | 0 | 0 | 1 | 2 | 5 | 4 | 1
C=CCN(C(=O)OC(C)(C)C)c1ccc(-c2cncc(F)c2)nc1C(F)(F)F [Compound B9] | 1 | 3 | 2 | 5 | 5 | 1 | 0 | 1 | 4 | 5 | 3 | 2
CC(C)(C)OC(=O)N(CC1CC1)c1ccc(-c2cncc(F)c2)nc1C(F)(F)F [Compound B10] | 1 | 3 | 2 | 5 | 4 | 1 | 0 | 1 | 3 | 5 | 3 | 1
COC(=O)CN(C(=O)OC(C)(C)C)c1ccc(-c2cncc(F)c2)nc1C(F)(F)F [Compound B11] | 0 | 0 | 0 | 1 | 2 | 0 | 0 | 0 | 1 | 3 | 1 | 0
CSc1cncc(-c2ccc(NC(=O)OC(C)(C)C)c(C)n2)c1 [Compound B12] | 1 | 1 | 1 | 3 | 2 | 1 | 0 | 1 | 2 | 3 | 2 | 1
CC#Cc1cncc(-c2ccc(NC(=O)OC(C)(C)C)c(C)n2)c1 [Compound B33] | 2 | 2 | 2 | 4 | 2 | 0 | 0 | 2 | 3 | 5 | 4 | 1
CC(C)(C)OC(=O)Nc1ccc(-c2cncc(F)c2)nc1C#N [Compound B34, tert-butyl N-[2-cyano-6-(5-fluoro-3-pyridyl)-3-pyridyl]carbamate] | 0 | 4 | 0 | 5 | 5 | 0 | 0 | 1 | 1 | 4 | 2 | 1
C=CCN(C(=O)OC(C)(C)C)c1ccc(-c2cncnc2)nc1C(F)(F)F [Compound B35] | 0 | 2 | 0 | 4 | 3 | 0 | 0 | 1 | 2 | 5 | 2 | 1
O=C(NCc1ccc(Cl)cc1)Nc1ccc(-c2cncc(F)c2)nc1C(F)(F)F [Compound B38] | 0 | 1 | 0 | 3 | 2 | 0 | 0 | 0 | 2 | 4 | 2 | 0
O=C(Nc1ccc(-c2cncc(F)c2)nc1C(F)(F)F)N1CCOCC1 [Compound B39] | 1 | 4 | 3 | 5 | 5 | 0 | 0 | 1 | 3 | 5 | 4 | 1
CC(C)c1cc(NC(=O)Nc2ccc(-c3cncc(F)c3)nc2C(F)(F)F)on1 [Compound B40] | 0 | 1 | 0 | 1 | 1 | 0 | 0 | 0 | 1 | 3 | 2 | 1
